Laboratory results: patent publication US10040804B2, “Compounds targeting proteins, compositions, methods, and uses thereof” (BioTheryX, Inc., priority 2016, dated 2018)

Columns and labels:
[1] = biological target: T1, GSPT1 (Homo sapiens, UniProt P15170); test: GSPT1 protein levels by Western Blot analysis; assay type: cell-based; conditions: DMSO = 100.00; for remaining activity at 0.1 µM: 100 nM compound concentration; for remaining activity at 1 µM: 1 μM compound concentration
T1 construct: Whole cell extracts were prepared using RIPA buffer according to manufacturer's protocol (Pierce); endogenous in cells
Procedure: Cells were lysed using RIPA Buffer (Pierce) and a Western Blot analysis was performed using anti-GSPT1 and anti-β-actin antibodies. FIG. 11B is a graph showing the expression levels of GSPT1 protein in Molm-13 (AML) cells. Protein expression levels were measured using the LiCor Odyssey instrumentation and methods.
Western Blot Protocol: Cell lines were grown in RPMI 1640 supplemented with streptomycin, penicillin and 10% fetal bovine serum.
Cells were cultured at approximately 10^6 cells per mL and incubated in DMSO or each of the indicated compounds for 6-8 h. Whole cell extracts were prepared using RIPA buffer according to manufacturer's protocol (Pierce). Briefly, 2×10^6 cells were washed once in PBS, the cell pellets were resuspended in RIPA buffer and allowed to incubate for 15 minutes on ice. Cells debris was removed by centrifugation and the cleared whole cell lysates were transferred to new tubes for further analysis.
For Western blot analysis, whole cell protein extracts were separated on 4-12% SDS-polyacrylamide gels, transferred to nitrocellulose, and probed with the indicated primary antibodies. Membranes were subsequently washed and probed with the appropriate IRDye secondary antibodies (LI-COR). The signal was detected using the Odyssey Imaging System (LI-COR).
GSPT1: Rabbit anti-GSPT1 was obtained from Abcam, ab126090 (Cambridge, Eng.)

[2] = test system: IL-1β; test: IL-1β expression in LPS stimulated PBMCs (Meso Scale); assay type: cell-based, human; conditions: Homo sapiens, PBMC; for inhibition at 0.1 µM: compound concentration 0.1 μM
Procedure: FIGS. 5 and 9A are graphs showing IL-1-beta expression in LPS stimulated peripheral blood mononuclear cells (PBMCs), PBMCs were plated in 96-well plates and pretreated with compound (Compound 1-9 individually) for 1 h, and then induced with 100 ng/mL LPS for 18-24 h. Cytokines in the media were measured according to MesoScale protocol. Negative control wells were treated with DMSO. Compound activity is measured as a percentage of LPS-induced activity. “Rev” is lenalidomide.
(§1) Frozen primary blood mononuclear cells (PBMCs) and frozen CD14+ mobilized peripheral blood monocytes were purchased from AllCells. Cells were quick thawed, and washed 1-time with RPMI-1640/10% FBS/1% Penicillin/1% Streptomycin and plated in 96-well plates at 200,000 cells per well. Cells were pretreated with DMSO only, Compound 5013 (lenolidamide) or the indicated compound for 1 h and then induced with 100 ng/mL lipopolysaccharide (LPS) for 18-24 h. The supernatant was analyzed for IL-1 beta, IL-6, and TNF-α using Meso Scale assay according to manufacturer's protocol. The negative control wells were treated with DMSO.
(§2) PBMCs: AllCells PB003F, Normal Peripheral Blood MNC.
(§3) Media: RPMI 1640/10% FBS/1% Pen-Strep.

[3] = test system: H1048 cells; test: H1048 cell viability (CellTiter-Glo); assay type: cell-based; conditions: Homo sapiens, NCI-H1048, 72 h, H1048, 3 days, DMSO = 100.00; for viability at 1 µM: 1 μM compound concentration; for viability at 10 µM: 10 μM compound concentration
Procedure: (§4) FIG. 10A is a graph showing antiproliferative activity in H1048 (SCLC) cells. FIG. 10B is a graph showing antiproliferative activity in Molm-13 (AML) cells. In FIGS. 10A and 10B, the cells were incubated for 72 hrs with Compound 9 at the indicated concentrations or DMSO. Compound activity was measured based on the signal from remaining viable cells.
(§5) Molm-13 cells were cultivated in RPMI-1640 (10% FBS/1% pen-strep) and were plated in white walled 96-well plates at 20,000 cells/well. H1048 cells were cultured in DMEM:F12 media supplemented with 5% fetal bovine serum, insulin, transferrin, sodium selenite, hydrocortisone, β-estradiol, penicillin and streptomycin, and were plated in white walled 96-well plates at 20,000 cells/well. MDA-MB-231 cells were cultured in DMEM media supplemented with 10% fetal bovine serum, penicillin and streptomycin, and were plated in white walled 96-well plates at 10,000 cells/well. Cells were treated with compound or DMSO (0.1%, control) and the cultures were incubated for 3 days at 37° C. and 5% CO2. Following the incubation period, 100 μL of CellTiterGlow (CTG) reagent (CellTiter-Glo® Luminescent Cell Viability Assay, Promega (Madison, Wis.)) was added to each well. Following a 10 min incubation with shaking, luminescence was measured using a Victor Wallac Luminometer.

[4] = test system: MDA-MB-231 cells; test: MDA-MB-231 cell viability (CellTiter-Glo); assay type: cell-based; conditions: Homo sapiens, 72 h, 3 days, DMSO = 100.00; for viability at 1 µM: 1 μM compound concentration; for viability at 10 µM: 10 μM compound concentration
Procedure: as §5

[5] = test system: Molm-13 cells; test: Molm-13 cell viability (CellTiter-Glo); assay type: cell-based; conditions: Homo sapiens, MOLM-13, read-out: % Inhibition (MOLM-13 Cell Viability); for cytotoxicity at 0.1 µM: compound concentration 0.1 μM
Procedure: as §4, §5

[6] = test system: IL-6; test: IL-6 expression in LPS stimulated PBMCs (Meso Scale); assay type: cell-based, human; conditions: Homo sapiens, PBMC, LPS-stimulated PBMCs; for inhibition at 0.1 µM: compound concentration 0.1 μM
Procedure: FIGS. 6 and 9B are graphs showing IL-6 expression in LPS stimulated peripheral blood mononuclear cells (PBMCs). PBMCs were plated in 96-well plates and pretreated with compound (Compound 1-9 individually) for 1 h, and then induced with 100 ng/mL LPS for 18-24 h. Cytokines were measured according to MesoScale protocol. Negative control wells were treated with DMSO. Compound activity was measured as a percentage of LPS-induced activity. “Rev” is lenalidomide.
as §1, §2, §3

[7] = test system: TNF-α; test: TNF-α expression in LPS stimulated PBMCs (Meso Scale); assay type: cell-based, human; conditions: Homo sapiens, PBMC; for inhibition at 0.1 µM: compound concentration 0.1 μM
Procedure: FIGS. 7 and 9C are graphs showing TNF-a expression in LPS stimulated peripheral blood mononuclear cells (PBMCs). PBMCs were plated in 96-well plates and pretreated with compound (Compound 1-9 individually) for 1 h, and then induced with 100 ng/mL LPS for 18-24 h. Cytokines in the media were measured according to MesoScale protocol. The negative control wells were treated with DMSO. Compound activity is measured as a percentage of LPS-induced activity. “Rev” is lenalidomide.
as §1, §2, §3

T1 sequence (P15170 whole entry): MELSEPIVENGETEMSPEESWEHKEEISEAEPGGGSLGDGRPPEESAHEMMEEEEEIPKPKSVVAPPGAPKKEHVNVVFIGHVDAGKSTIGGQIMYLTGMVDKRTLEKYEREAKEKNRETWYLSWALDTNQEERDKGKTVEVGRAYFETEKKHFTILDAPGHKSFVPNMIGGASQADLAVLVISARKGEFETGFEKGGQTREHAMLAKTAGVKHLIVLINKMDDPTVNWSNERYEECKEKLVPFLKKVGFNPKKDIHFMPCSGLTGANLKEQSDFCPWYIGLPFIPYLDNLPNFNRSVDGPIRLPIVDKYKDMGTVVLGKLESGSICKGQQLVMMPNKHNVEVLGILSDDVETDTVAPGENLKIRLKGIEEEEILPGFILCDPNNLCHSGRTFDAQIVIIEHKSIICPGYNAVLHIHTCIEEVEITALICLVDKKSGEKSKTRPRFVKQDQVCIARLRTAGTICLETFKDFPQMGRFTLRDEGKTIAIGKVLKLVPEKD
T1 sequence (Q96SW2 whole entry, further chain): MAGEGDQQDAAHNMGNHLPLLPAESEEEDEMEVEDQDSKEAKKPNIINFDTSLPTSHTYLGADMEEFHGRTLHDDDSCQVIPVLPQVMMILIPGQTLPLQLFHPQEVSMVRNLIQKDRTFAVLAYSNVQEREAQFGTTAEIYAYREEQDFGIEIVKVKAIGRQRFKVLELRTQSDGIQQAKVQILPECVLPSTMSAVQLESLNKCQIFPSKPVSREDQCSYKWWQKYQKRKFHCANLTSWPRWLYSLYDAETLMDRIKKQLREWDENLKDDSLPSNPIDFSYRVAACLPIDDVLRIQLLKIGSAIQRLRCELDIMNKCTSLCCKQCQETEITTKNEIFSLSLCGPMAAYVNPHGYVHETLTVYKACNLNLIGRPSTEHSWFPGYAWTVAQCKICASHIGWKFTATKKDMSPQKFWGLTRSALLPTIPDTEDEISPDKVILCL
T1 sequence (Q16531 whole entry partner): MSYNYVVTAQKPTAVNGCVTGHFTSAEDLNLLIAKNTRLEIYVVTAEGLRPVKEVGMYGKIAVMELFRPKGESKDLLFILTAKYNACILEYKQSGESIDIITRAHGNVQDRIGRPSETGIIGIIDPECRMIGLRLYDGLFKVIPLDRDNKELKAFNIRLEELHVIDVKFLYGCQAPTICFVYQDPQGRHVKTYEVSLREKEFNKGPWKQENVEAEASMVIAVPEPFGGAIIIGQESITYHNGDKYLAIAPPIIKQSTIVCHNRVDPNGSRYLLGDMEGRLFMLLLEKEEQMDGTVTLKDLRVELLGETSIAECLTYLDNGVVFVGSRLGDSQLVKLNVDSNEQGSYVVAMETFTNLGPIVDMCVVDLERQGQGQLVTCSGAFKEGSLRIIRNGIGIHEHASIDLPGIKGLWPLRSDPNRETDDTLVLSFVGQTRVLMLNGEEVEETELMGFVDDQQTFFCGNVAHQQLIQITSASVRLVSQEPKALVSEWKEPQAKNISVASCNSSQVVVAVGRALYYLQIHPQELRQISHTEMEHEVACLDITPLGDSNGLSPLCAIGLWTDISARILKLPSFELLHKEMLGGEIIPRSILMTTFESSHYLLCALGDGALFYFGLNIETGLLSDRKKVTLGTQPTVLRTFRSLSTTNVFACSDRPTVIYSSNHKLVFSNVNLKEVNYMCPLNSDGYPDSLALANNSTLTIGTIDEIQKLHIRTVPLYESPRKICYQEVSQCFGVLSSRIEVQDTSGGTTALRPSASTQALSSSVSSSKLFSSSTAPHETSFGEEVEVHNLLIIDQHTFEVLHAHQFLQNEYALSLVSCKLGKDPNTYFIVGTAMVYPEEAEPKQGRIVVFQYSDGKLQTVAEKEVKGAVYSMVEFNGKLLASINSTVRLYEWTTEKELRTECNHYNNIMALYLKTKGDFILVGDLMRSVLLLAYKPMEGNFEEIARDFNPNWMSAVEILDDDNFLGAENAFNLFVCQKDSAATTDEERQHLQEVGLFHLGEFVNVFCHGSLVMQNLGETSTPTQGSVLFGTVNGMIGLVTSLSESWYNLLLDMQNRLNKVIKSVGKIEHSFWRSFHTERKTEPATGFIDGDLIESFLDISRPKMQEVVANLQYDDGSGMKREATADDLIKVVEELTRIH

SMILES | remaining activity at 0.1 µM [1] | remaining activity at 1 µM [1] | inhibition at 0.1 µM [2] | viability at 1 µM [3] | viability at 10 µM [3] | viability at 1 µM [4] | viability at 10 µM [4] | cytotoxicity at 0.1 µM [5] | inhibition at 0.1 µM [6] | inhibition at 0.1 µM [7] | inhibition at 1 µM ([2]; compound concentration 1 μM) | cytotoxicity at 1 µM ([5]; compound concentration 1 μM) | inhibition at 1 µM ([6]; compound concentration 1 μM) | inhibition at 1 µM ([7]; compound concentration 1 μM)
Cc1c(Cl)cc(NC(=O)NCc2scc3c2CN(C2CCC(=O)NC2=O)C3=O)cc1C(C)C (centres unmarked) [Compound 48, 1-(3-Chloro-5-isopropyl-4-methylphenyl)-3-((5-(2,6-dioxopiperidin-3-yl)-4-oxo-5,6-dihydro-4H-thieno[3,4-c]pyrrol-1-yl)methyl)urea] | 1.46% | 3.85% | 96% | 9.03% | 6.89% | 22.2% | 21.7% | 100% | 100% | 92% | – | – | – | –
Cc1ccc(NC(=S)NCc2scc3c2CN(C2CCC(=O)NC2=O)C3=O)cc1Cl (centres unmarked) [Compound 52, 1-(3-Chloro-4-methylphenyl)-3-((5-(2,6-dioxopiperidin-3-yl)-4-oxo-5,6-dihydro-4H-thieno[3,4-c]pyrrol-1-yl)methyl)thiourea] | 0.58% | 1.05% | 98% | 9.22% | 10.3% | 22.4% | 20.5% | 99% | 100% | 95% | – | – | – | –
Cc1ccc(NC(=O)NCc2scc3c2CN(C2CCC(=O)NC2=O)C3=O)cc1C(F)(F)F (centres unmarked) [Compound 54, 1-((5-(2,6-Dioxopiperidin-3-yl)-4-oxo-5,6-dihydro-4H-thieno[3,4-c]pyrrol-1-yl)methyl)-3-(4-methyl-3-(trifluoromethyl)phenyl)urea] | 2.25% | 2.72% | 96% | 8.11% | 6.12% | 22.6% | 22.4% | 100% | 100% | 93% | – | – | – | –

Further lines, with some results ahead:

remaining activity at 0.1 µM [1] | remaining activity at 1 µM [1] | SMILES | inhibition at 0.1 µM [2] | viability at 1 µM [3] | viability at 10 µM [3] | viability at 1 µM [4] | viability at 10 µM [4] | cytotoxicity at 0.1 µM [5] | inhibition at 0.1 µM [6] | inhibition at 0.1 µM [7] | inhibition at 1 µM ([2]; compound concentration 1 μM) | cytotoxicity at 1 µM ([5]; compound concentration 1 μM) | inhibition at 1 µM ([6]; compound concentration 1 μM) | inhibition at 1 µM ([7]; compound concentration 1 μM)
0.64% | 2.61% | Cc1ccc(NC(=O)NCc2scc3c2CN(C2CCC(=O)NC2=O)C3=O)cc1C(C)C (centres unmarked) [Compound 47, 1-((5-(2,6-Dioxopiperidin-3-yl)-4-oxo-5,6-dihydro-4H-thieno[3,4-c]pyrrol-1-yl)methyl)-3-(3-isopropyl-4-methylphenyl)urea] | 99% | 8.91% | 8.58% | 21.8% | 19.3% | 100% | 100% | 97% | – | – | – | –
11.9% | 20% | Cc1cc(C)c(NC(=O)NCc2scc3c2CN(C2CCC(=O)NC2=O)C3=O)cc1Cl (centres unmarked) [Compound 49, 1-(5-Chloro-2,4-dimethylphenyl)-3-((5-(2,6-dioxopiperidin-3-yl)-4-oxo-5,6-dihydro-4H-thieno[3,4-c]pyrrol-1-yl)methyl)urea] | 61% | 7.67% | 6.1% | 24.3% | 19.7% | 100% | 87% | 62% | – | – | – | –
23.5% | 6.18% | Cc1ccc(NC(=O)NCc2scc3c2CN(C2CCC(=O)NC2=O)C3=O)cn1 (centres unmarked) [Compound 53, 1-((5-(2,6-Dioxopiperidin-3-yl)-4-oxo-5,6-dihydro-4H-thieno[3,4-c]pyrrol-1-yl)methyl)-3-(6-methylpyridin-3-yl)urea] | 60% | 8.51% | 8.09% | 27.6% | 21.3% | 100% | 90% | 65% | – | – | – | –
1.51% | 2.86% | O=C1CCC(N2Cc3c(csc3CNC(=O)Nc3ccc(C(F)(F)F)c(Cl)c3)C2=O)C(=O)N1 (centres unmarked) [Compound 55, 1-(3-chloro-4-(trifluoromethyl)phenyl)-3-((5-(2,6-dioxopiperidin-3-yl)-4-oxo-5,6-dihydro-4H-thieno[3,4-c]pyrrol-1-yl)methyl)urea] | 99% | 7.63% | 7.94% | 20.2% | 19% | 100% | 100% | 96% | – | – | – | –
265% | 28.4% | Cc1ccc(NC(=O)NCc2scc3c2CN([C@H]2CCCC(=O)NC2=O)C3=O)nc1Cl [Compound 57, (S)-1-(6-Chloro-5-methylpyridin-2-yl)-3-((5-(2,7-dioxoazepan-3-yl)-4-oxo-5,6-dihydro-4H-thieno[3,4-c]pyrrol-1-yl)methyl)urea] | – | 12.4% | 8.7% | 107% | 52% | – | – | – | 42% | 45% | 32% | 44%
